# Experiments:
# [1] = target: T1, Vitamin D3 receptor (Homo sapiens, UniProt P11473); assay: Induction of transactivation of human VDR responsive gene in COS7 cells by rat osteopontin luciferase reporter gene assay; assay type: cell-based, COS-7
# T1 sequence (P11473 whole entry): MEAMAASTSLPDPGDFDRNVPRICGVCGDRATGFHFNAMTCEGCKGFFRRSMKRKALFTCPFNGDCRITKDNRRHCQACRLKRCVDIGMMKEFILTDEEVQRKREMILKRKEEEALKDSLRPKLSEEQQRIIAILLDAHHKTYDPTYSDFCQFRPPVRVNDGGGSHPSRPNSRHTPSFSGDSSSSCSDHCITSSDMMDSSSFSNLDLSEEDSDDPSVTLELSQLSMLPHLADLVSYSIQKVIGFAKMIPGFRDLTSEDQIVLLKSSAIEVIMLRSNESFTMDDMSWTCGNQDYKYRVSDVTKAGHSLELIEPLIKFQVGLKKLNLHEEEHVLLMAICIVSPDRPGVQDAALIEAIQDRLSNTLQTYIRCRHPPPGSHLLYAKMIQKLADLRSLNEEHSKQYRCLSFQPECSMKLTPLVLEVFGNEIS
# [2] = system: Rattus norvegicus; assay: Effect on bone calcium mobilization in low-calcium diet fed rat at 325 pmol/day, ip after 7 days; assay type: functional
# [3] = system: Rattus norvegicus; assay: Effect on intestinal calcium transport in low-calcium diet fed rat assessed as serosal:mucosal ratio of calcium at 100 pmol/day, ip after 7 days; assay type: functional
# [4] = system: Rattus norvegicus; assay: Effect on bone calcium mobilization in low-calcium diet fed rat assessed by measuring at 650 pmol/day, ip after 7 days; assay type: functional
# [5] = system: Rattus norvegicus; assay: Effect on bone calcium mobilization in low-calcium diet fed rat at 100 pmol/day, ip after 7 days; assay type: functional
# [6] = system: Rattus norvegicus; assay: Effect on intestinal calcium transport in low-calcium diet fed rat assessed as serosal:mucosal ratio of calcium at 650 pmol/day, ip after 7 days; assay type: functional
# [7] = system: HL-60; assay: Induction of human HL60 cell differentiation to monocytes by NBT reduction assay; assay type: functional, cell-based
# [8] = system: Rattus norvegicus; assay: Effect on intestinal calcium transport in low-calcium diet fed rat assessed as serosal:mucosal ratio of calcium at 325 pmol/day, ip after 7 days; assay type: functional
# [9] = target: T2, Vitamin D3 receptor (Bos taurus, UniProt Q28037); assay: Displacement of [3H]1,25-(OH)2D3 from vitamin D receptor in bovine thymus
# T2 sequence (Q28037 whole entry): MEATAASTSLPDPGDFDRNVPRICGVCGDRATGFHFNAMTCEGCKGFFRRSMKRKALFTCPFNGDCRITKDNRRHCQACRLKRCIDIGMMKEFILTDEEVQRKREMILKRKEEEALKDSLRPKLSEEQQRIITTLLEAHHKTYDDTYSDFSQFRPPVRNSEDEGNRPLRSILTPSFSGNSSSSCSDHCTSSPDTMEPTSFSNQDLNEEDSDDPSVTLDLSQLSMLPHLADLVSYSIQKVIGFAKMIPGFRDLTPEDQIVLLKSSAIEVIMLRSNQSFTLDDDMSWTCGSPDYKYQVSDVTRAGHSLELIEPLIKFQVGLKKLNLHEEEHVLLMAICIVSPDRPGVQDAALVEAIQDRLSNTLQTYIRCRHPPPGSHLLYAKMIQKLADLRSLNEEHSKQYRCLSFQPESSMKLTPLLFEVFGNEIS
EC50 [1] [nM],EC50 [7] [nM],EC50 [9] [nM],SMILES,Activity [2],Ratio [3],Activity [4],Activity [5],Ratio [6],Ratio [8]
0.003,0.018,0.031,C=C1/C(=C\C=C2/CCC[C@@]3(C)C2CC[C@@H]3[C@@H](C)[C@H](C)CCC(C)(C)O)C[C@@H](O)C[C@@H]1O (stereo partly drawn),8.1,7,8.4,5,12.2,8.2
0.002,0.057,0.018,C=C1/C(=C\C=C2/CCC[C@@]3(C)C2CC[C@@H]3[C@@H](C)[C@H](CC)CCC(C)(C)O)C[C@@H](O)C[C@@H]1O (stereo partly drawn),5,5.7,6.2,3.9,8.5,6.3
0.2,1.05,0.89,C=C1/C(=C\C=C2/CCC[C@@]3(C)C2CC[C@@H]3[C@@H](C)[C@H](CCCC)CCC(C)(C)O)C[C@@H](O)C[C@@H]1O (stereo partly drawn),,,,,,
,,,C=C1/C(=C\C=C2/CCC[C@]3(C)[C@@H]([C@H](C)CCCC(C)(C)O)CC[C@@H]23)C[C@@H](O)C[C@@H]1O [CALCITRIOL],5.5,,,4.6,,

# Reference: ChEMBL document CHEMBL1142865, “22-Alkyl-20-epi-1alpha,25-dihydroxyvitamin D3 compounds of superagonistic activity: syntheses, biological activities and interaction with the receptor” (J Med Chem, 2007)
